Experimental data from US6913882B2, “Methods of screening for B cell activity modulators” (Affymetrix, Inc., priority 1999, dated 2005).
Where two headings read alike, the source gives them in different places. Values belong to the compound of their own block, whether it stands above or below them.

Assays:
[1] = tested on: early response genes; test: B cell activation (HEL or anti-mu, 1 hr) with FK506, EGTA or PD98059, early response gene expression on arrays; type: cell-based, mice
Protocol: (§1) Splenic B cells from non-transgenic, Ig^HEL or sHEL/Ig^HEL transgenic mice were purified at room temperature in 1% bovine calf serum in RPMI. The spleen cells were stained with CD4, CD8 and Mac-1 FITC conjugated antibodies (Caltag) and depleted of T cells and macrophages with sheep anti-FITC magnetic beads (Perseptive Biosystems). The remaining cells were 85-95% B220 positive and were either lysed immediately (naive and tolerant cell preps) or stimulated in RPMI with 1% serum at 37° C. at 2-3×10^6 cells/ml. For stimulation experiments, HEL (Sigma) was used at 500 ng/ml, goat anti-mu (Jackson Labs) at 10 μg/ml, FK506 at 10 ng/ml, PD98059 (NEB) at 20 μM unless stated otherwise, ionomycin at 1 μM and EGTA at 3 mM. Cells were preincubated for 45 minutes with PD98059, 15 minutes with FK506 and 2 minutes with EGTA before addition of HEL or anti-mu. Mock stimulations were performed by addition of carrier alone for stimuli or inhibitors. At the end of the incubation, the cells were pelleted by centrifugation, resuspended in a minimal volume of medium (about 50 μl) by pipetting and lysed in 0.5-1 ml Trizol (Gibco BRL).
(§2) Trizol lysates were phenol-extracted and precipitated with isopropanol. Poly A+ RNA was purified with Oligotex (Qiagen). cDNA was synthesised with a Superscriptll cDNA synthesis kit (Gibco BRL) using a T7:(dT)24 oligo to prime the first strand and purified by phenol extraction and ethanol precipitation. […]
Each gene on the arrays was tiled as a collection of approximately 20 probe pairs. […] The perfect match—mismatch intensities (PM—MM) were calculated for each probe pair for each gene in each experiment. […] Positive t values associated with a probability of less than 0.1 were scored as increased, negative t values with a probability of less than 0.1 were scored as decreased. The number of increased and decreased probe pairs associated with each gene was determined and called npos and nneg respectively (of the approximately 20 probe pairs tiled for each gene). […] The probability of scoring npos or more of the total number of probe pairs was determined. […]

[2] = tested on: B cell; test: B cell death on activation in the presence of FK506; type: cell-based
[3] = tested on: Egr-1; test: B cell activation with PD98059 titration, Egr-1 upregulation monitored on expression arrays; type: cell-based, mice
Protocol: as §1
as §2, with “precipitation. The cDNA was used as a template for in vitro transcription (IVT) using the Megascript system (Ambion) with the inclusion of biotinylated CTP and UTP.” for “precipitation.”
An intensity for each gene was calculated based on a trimmed mean of the PM—MM values. […]
In addition to NFAT, the ERK pathway is also activated in foreign or self antigen-stimulated cells. To determine downstream transcriptional effects of ERK, the effect of MEK, an ERK kinase, on B cell activation was determined. The MEK inhibitor PD98059 was titrated in B cell activation experiments and gene expression was monitored using one of the four arrays in the set (approximately 1600 genes). […]

Structure (SMILES): O=C(O)CN(CCOCCOCCN(CC(=O)O)CC(=O)O)CC(=O)O [EGTA]
- effect on the transcript profile of stimulated naïve cells ([1]; EGTA, FIG. 3C): essentially the same effect on the transcript profile as FK506

Structure (SMILES): C=CC[C@@H]1/C=C(\C)C[C@H](C)C[C@H](OC)[C@H]2O[C@@](O)(C(=O)C(=O)N3CCCC[C@H]3C(=O)O[C@H](/C(C)=C/[C@@H]3CC[C@@H](O)[C@H](OC)C3)[C@H](C)[C@@H](O)CC1=O)[C@H](C)C[C@@H]2OC [FK506]
- B cell death on activation [2]: increased B cell death

- IC50 ([3]; B cell activation, PD98059 titrated, read-out: concentration at which upregulation of Egr-1 was 50% inhibited): 5 to 10 µM
- IC50 ([3]; anti-mu stimulation of non-transgenic B cells, FIG. 3D, read-out: IC50 for inhibition of upregulation of Egr-1): ~5 µM
Structure (SMILES): COc1cccc(-c2cc(=O)c3ccccc3o2)c1N [PD98059]
- inhibition of upregulation of Egr-1 ([3]; 20 μM PD98059): totally inhibited
- sensitivity of induction of three transcripts (Egr-1, NAB2 and Gfi-1) upregulated by both self and foreign antigen ([1]; FIG. 3D (PD98059), FIG. 3A (FK506)): sensitive
- sensitivity of regulation of other early response genes relative to Egr-1 ([1]; PD98059 titration): less sensitive
